Measured values from patent US20210330731A1, “TOPICAL SALVE FORMULATIONS FOR DERMAL ALKALOID DELIVERY” (priority 2020, published 2021).

Experiment: Topical application of alkaloid-containing analgesic salve formulations, observed pain relief
Format: in vivo, patients
Conditions: for notable effect of secondary ingredient added to formulation: secondary ingredient in topical formulation
Text: In most embodiments, three-cup batches of oil and wax (e.g.; 2¼ cup oil, ¾ cup wax or other hardening agent) were infused with an extract produced from at least two ounces of plant matter processed using the above method. In a preferred embodiment, an extract produced from around 4.5 to 6 ounces of herbal material yielded the best results as far as optimal pain relief for the amount of product used.
In one embodiment, a formulation for a kratom alkaloid-based topical product involves extracting alkaloids from kratom powder into a food-grade oil (such as coconut oil) at 160° F. The powder may be combined with a lecithin (such as a sunflower lecithin) to aid in extraction.
In a further embodiment, a formulation involves extracting alkaloids from kratom powder into a food-grade oil at 160° F. for two hours and adding one or more carrier oils. The carrier oils comprise black pepper oil, turmeric oil, peppermint oil and lemon oil. A hardening agent, such as beeswax, may also be added. Piperine (a black pepper alkaloid), curcumin (a metabolite of turmeric), peppermint oil, and lemon oil are intended as dermal carriers and absorption enhancers. Piperine is known to increase curcumin bioavailability.
In a further embodiment, a severe pain relief formulation involves extracting alkaloids from kratom powder into a food-grade oil at 160° F. for two hours and adding one or more carrier oils. The carrier oils comprise black pepper oil, turmeric oil, peppermint oil (alternately, eucalyptus or naioli oils will suffice since they contain similar compounds), lemon oil, magnesium oil, St John's Wort oil, arnica oil, parsley oil, cinnamon oil, lemongrass oil, ginger oil, arnica oil (comprises helenalin, fatty acids (inolenic, palmitic, linoleic, and myristic) thymol, ethers of thymol, thymohydroquinone dimethyl ether, and phlorol isobutyrate (2%)), Ylang Ylang (Cananga odorata) oil (comprises linalool, caryophyllene and germacrene), and/or Black Seed oil (comprises anethole, p-cymene, limonene, carvone and thymoquinone). […] FIG. 2 provides a table 200 listing primary herbal extract sources 210 and secondary ingredients 220, including but not limited to dermal absorption enhancers 222, alkaloid potentiators 224, neuropathic relief agents 226, and anti-inflammation agents 228.
In yet another embodiment, a severe pain and inflammation relief formulation involves extracting alkaloids from kratom powder into a food-grade oil at 160° F. for two hours and adding one or more carrier oils. The carrier oils comprise black pepper oil, turmeric oil, peppermint oil, lemon oil, magnesium oil, St. John's Wort oil, arnica oil, and ginger oil. The kratom powder may be a combination of concentrated kratom extract and kratom powder. […]

Molecule: magnesium stearate
- notable effect of secondary ingredient added to formulation: relieved muscle spasms

Molecule: copper salicylate
- notable effect of secondary ingredient added to formulation: minor improvement to pain relief

Molecule: Oc1ccc(/C=C/c2cc(O)cc(O)c2)cc1 [Trans-resveratrol]
- increase of the effect of a formulation (duration) (added to the formulation as alkaloid potentiator): approximately two hours or longer

Molecule: O=c1c(O)c(-c2ccc(O)c(O)c2)oc2cc(O)cc(O)c12 [quercetin]
- notable effect of secondary ingredient added to formulation: decreased pain and inflammation
